Results published in ChEMBL document CHEMBL4392881, “Noursamycins, Chlorinated Cyclohexapeptides Identified from Molecular Networking of Streptomyces noursei NTR-SR4” (2019).
In brackets after ≈: the same amount, converted by molar mass.

Assays:
[1] = system: Sporobolomyces salmonicolor; test: Antifungal activity against Sporobolomyces salmonicolor JMRC:ST:35974 assessed as diameter of colonies in inhibition zone by agar diffusion test (reference value: 10 millimeter); assay type: functional
Candida albicans = test: Antifungal activity against Candida albicans JMRC:STI:25000 assessed as diameter of clear inhibition zone by agar diffusion test (reference value: 0 millimeter); assay type: functional
Penicillium chrysogenum [2] = test: Antifungal activity against Penicillium notatum JMRC:STI:50164 assessed as diameter of colonies in inhibition zone by agar diffusion test (reference value: 10 millimeter); assay type: functional
Enterococcus faecalis = test: Antibacterial activity against vancomycin-resistant Enterococcus faecalis JMRC:ST:33700 assessed as diameter of promotion of inhibition zone by agar diffusion test (reference value: 0 millimeter); assay type: functional
Mycolicibacterium vaccae [3] = test: Antibacterial activity against Mycobacterium vaccae JMRC:STI:10670 assessed as diameter of colonies in inhibition zone by agar diffusion test (reference value: 0 millimeter); assay type: functional
Bacillus subtilis [4] = test: Antibacterial activity against Bacillus subtilis DSM10 measured after 20 hrs; assay type: functional; conditions: DSM10, 20 h
Escherichia coli [5] = test: Antibacterial activity against Escherichia coli DSM 1116 measured after 20 hrs; assay type: functional; conditions: DSM 1116, 20 h
Escherichia coli [6] = test: Antibacterial activity against Escherichia coli BW25113 measured after 20 hrs; assay type: functional; conditions: BW25113, 20 h
Salmonella typhimurium = test: Antibacterial activity against Salmonella typhimurium TA100 measured after 20 hrs; assay type: functional, Salmonella enterica subsp. enterica serovar Typhimurium; conditions: Salmonella enterica, TA100, 20 h
Micrococcus luteus = test: Antibacterial activity against Micrococcus luteus DSM 1790 measured after 20 hrs; assay type: functional; conditions: DSM 1790, 20 h
Mycolicibacterium phlei = test: Antibacterial activity against Mycobacterium phlei DSM 750 measured after 20 hrs; assay type: functional; conditions: DSM 750, 20 h
Bacillus subtilis [7] = test: Antibacterial activity against Bacillus subtilis JMRC:STI:10880 assessed as diameter of clear inhibition zone by agar diffusion test (reference value: 0 millimeter); assay type: functional
Staphylococcus aureus [8] = test: Antibacterial activity against Staphylococcus aureus JMRC:ST:10760 assessed as diameter of clear inhibition zone by agar diffusion test (reference value: 0 millimeter); assay type: functional
Staphylococcus aureus [9] = test: Antibacterial activity against mulitdrug-resistant Staphylococcus aureus JMRC:ST:33793 assessed as diameter of clear inhibition zone by agar diffusion test (reference value: 0 millimeter); assay type: functional
Escherichia coli [10] = test: Antibacterial activity against Escherichia coli JMRC:ST:33699 assessed as diameter of clear inhibition zone by agar diffusion test (reference value: 0 millimeter); assay type: functional
Pseudomonas aeruginosa [11] = test: Antibacterial activity against Pseudomonas aeruginosa JMRC:ST:33772 assessed as diameter of clear inhibition zone by agar diffusion test (reference value: 0 millimeter); assay type: functional
Pseudomonas aeruginosa [12] = test: Antibacterial activity against Pseudomonas aeruginosa JMRC:ST:337721 assessed as diameter of clear inhibition zone by agar diffusion test (reference value: 0 millimeter); assay type: functional
Mycolicibacterium vaccae [13] = test: Antibacterial activity against Mycobacterium vaccae JMRC:STI:10670 assessed as diameter of clear inhibition zone by agar diffusion test (reference value: 0 millimeter); assay type: functional
Penicillium chrysogenum [14] = test: Antifungal activity against Penicillium notatum JMRC:STI:50164 assessed as diameter of clear inhibition zone by agar diffusion test (reference value: 10 millimeter); assay type: functional
Staphylococcus aureus [15] = test: Antibacterial activity against mulitdrug-resistant Staphylococcus aureus JMRC:ST:33793 assessed as diameter of colonies in inhibition zone by agar diffusion test (reference value: 0 millimeter); assay type: functional

SMILES	diameter of the inhibition zone (DIZ) [1] [mm]	diameter of the inhibition zone (DIZ) (Candida albicans) [mm]	diameter of the inhibition zone (DIZ) (Penicillium chrysogenum [2]) [mm]	diameter of the inhibition zone (DIZ) (Enterococcus faecalis) [mm]	diameter of the inhibition zone (DIZ) (Mycolicibacterium vaccae [3]) [mm]	MIC (Bacillus subtilis [4]) [µg/mL]	MIC (Escherichia coli [5]) [µg/mL]	MIC (Escherichia coli [6]) [µg/mL]	MIC (Salmonella typhimurium) [µg/mL]	MIC (Micrococcus luteus) [µg/mL]	MIC (Mycolicibacterium phlei) [µg/mL]	diameter of the inhibition zone (DIZ) (Bacillus subtilis [7]) [mm]	diameter of the inhibition zone (DIZ) (Staphylococcus aureus [8]) [mm]	diameter of the inhibition zone (DIZ) (Staphylococcus aureus [9]) [mm]	diameter of the inhibition zone (DIZ) (Escherichia coli [10]) [mm]	diameter of the inhibition zone (DIZ) (Pseudomonas aeruginosa [11]) [mm]	diameter of the inhibition zone (DIZ) (Pseudomonas aeruginosa [12]) [mm]	diameter of the inhibition zone (DIZ) (Mycolicibacterium vaccae [13]) [mm]	diameter of the inhibition zone (DIZ) (Penicillium chrysogenum [14]) [mm]	diameter of the inhibition zone (DIZ) (Staphylococcus aureus [15]) [mm]
C[C@@H]1[C@H](O)[C@@H](C)/C=C/C=C/C=C/C=C/C=C/C=C/C=C/[C@H](O[C@@H]2O[C@H](C)[C@@H](O)[C@H](N)[C@@H]2O)C[C@@H]2O[C@](O)(C[C@@H](O)C[C@@H](O)[C@H](O)CC[C@@H](O)C[C@@H](O)CC(=O)O[C@H]1C)C[C@H](O)[C@H]2C(=O)O [AMPHOTERICIN B]	18	20	19																	
O=C(O)c1cn(C2CC2)c2cc(N3CCNCC3)c(F)cc2c1=O [CIPROFLOXACIN]				17	21	< 0.25	< 0.25	< 0.25	< 0.25	< 0.25	< 0.25									
CC[C@@H](C)[C@@H]1NC(=O)[C@@H](Cc2ccccc2)NC(=O)[C@@H](C(C)C)NC(=O)[C@H](Cc2c[nH]c3ccc(Cl)cc23)NC(=O)[C@@H]([C@H](O)C(N)=O)NC(=O)[C@H](CCCN)NC1=O	12	0		18	26	4 (≈ 4.85 µM)	≥ 64	≥ 64	16 (≈ 19.4 µM)	8 (≈ 9.7 µM)	8 (≈ 9.7 µM)	18	21	18	10	0	10	21	0	
CC[C@@H](C)[C@@H]1NC(=O)[C@@H](CC(C)C)NC(=O)[C@@H](C(C)C)NC(=O)[C@H](Cc2c[nH]c3ccc(Cl)cc23)NC(=O)[C@@H]([C@H](O)C(N)=O)NC(=O)[C@H](CCCN)NC1=O	12	0		16		32 (≈ 40.5 µM)	≥ 64	≥ 64	32 (≈ 40.5 µM)	32 (≈ 40.5 µM)	32 (≈ 40.5 µM)	16	18	13	0	0	10	22	0	15
